# Experimental data taken from US20230142844A1, “USE OF 1,9-DECANEDIOL IN RETARDING UREA HYDROLYSIS” (INSTITUTION OF SOIL SCIENCE, CHINESE ACADEMY OF SCIENCES, priority 2021, published 2023).
# Tested on: urea hydrolysis in soil
# Experiment: Soil culture test: effect of inhibitors applied with urea on urea hydrolysis (urea nitrogen and ammonia nitrogen contents in soil)
# Details: for contents of ammonia nitrogen in soil (NH4^+-N) / contents of urea nitrogen in soil (Urea-N): flooded paddy soil, 25° C.; for inhibition of urea hydrolysis during the culture period / effect on retarding the hydrolysis efficiency of urea: result in words; for effect on retarding the hydrolysis efficiency of urea: applied with urea to flooded paddy soil
# Method: 1.1 experimental soil: the type of experimental soil is paddy soil, and the texture is sandy loam soil. It is collected from 0-20 cm topsoil of experimental field in Yingtan City, Jiangxi Province (28° 15′N, 116° 55′E). It is sieved by 2 millimeters (mm), mixed, and reserved.
# 1.2 test reagent: 1,9-decanediol is customized in market, and a structural formula thereof is C10H22O2. Nitrification inhibitor is dicyandiamide (DCD, a structural formula thereof is C2H4N4) is purchased from Sigma.
# 1.3 experimental treatment: experimental setting as follows: urea treatment (U); nitrification inhibitor DCD +urea treatment including: DCD-20 mg/kg soil; 1,9-decanediol+urea treatment in the soil including: 1,9-D-100 mg/kg, 1,9-D-200 mg/kg, 1,9-D-500 mg/kg, and 1,9-D-1000 mg/kg. Each treatment is repeated three times. The amount of nitrogen applied is […] nitrogen per kilogram soil.
# After the experimental soil is weighed into 100 milliliters (mL) plastic pipe, distilled water is evenly added, and the soil water content is adjusted to 60% of the maximum field water capacity. Then the plastic pipe is sealed with sealing film and uniform holes are pricked to keep air flowing, and pre-cultured in a 25° C. incubator for three days.
# After the pre-culture, according to the different experimental treatments, the corresponding urea and inhibitors (1,9-decanediol and DCD) are weighed to form a mixed solution, the mixed solution is evenly applied to soil, then distilled water is added to maintain a flooded state, and cultured at 25° C. […]. The contents of urea nitrogen and ammonia nitrogen in soil are measured on the 1st, 2nd, 3rd, 5th, and 7th days of culture to evaluate the effects of different inhibitors on nitrogen transformation.
# [1] = 1,9-decanediol 100 mg/kg in soil + urea, 1 d of culture
# [2] = 1,9-decanediol 100 mg/kg in soil + urea, 2 d of culture
# [3] = 1,9-decanediol 100 mg/kg in soil + urea, 3 d of culture
# [4] = 1,9-decanediol 100 mg/kg in soil + urea, 5 d of culture
# [5] = 1,9-decanediol 100 mg/kg in soil + urea, 7 d of culture
# [6] = 1,9-decanediol 200 mg/kg in soil + urea, 1 d of culture
# [7] = 1,9-decanediol 200 mg/kg in soil + urea, 2 d of culture
# [8] = 1,9-decanediol 200 mg/kg in soil + urea, 5 d of culture
# [9] = 1,9-decanediol 200 mg/kg in soil + urea, 7 d of culture
# [10] = 1,9-decanediol 500 mg/kg in soil + urea, 1 d of culture
# [11] = 1,9-decanediol 500 mg/kg in soil + urea, 2 d of culture
# [12] = 1,9-decanediol 500 mg/kg in soil + urea, 3 d of culture
# [13] = 1,9-decanediol 500 mg/kg in soil + urea, 5 d of culture
# [14] = 1,9-decanediol 500 mg/kg in soil + urea, 7 d of culture
# [15] = 1,9-decanediol 1000 mg/kg in soil + urea, 1 d of culture
# [16] = 1,9-decanediol 1000 mg/kg in soil + urea, 2 d of culture
# [17] = 1,9-decanediol 1000 mg/kg in soil + urea, 3 d of culture
# [18] = 1,9-decanediol 1000 mg/kg in soil + urea, 5 d of culture
# [19] = 1,9-decanediol 1000 mg/kg in soil + urea, 7 d of culture
# [20] = DCD 20 mg/kg soil + urea, 1 d of culture
# [21] = DCD 20 mg/kg soil + urea, 2 d of culture
# [22] = DCD 20 mg/kg soil + urea, 3 d of culture
# [23] = DCD 20 mg/kg soil + urea, 5 d of culture
# [24] = DCD 20 mg/kg soil + urea, 7 d of culture
smiles,measurement,setting,value
"CC(O)CCCCCCCCO (stereo not drawn) [1,9-D, 1,9-decanediol]",contents of ammonia nitrogen in soil (NH4^+-N),[1],171.9 ± 8.1a
same,contents of urea nitrogen in soil (Urea-N),[1],10.1 ± 0.7c
same,contents of ammonia nitrogen in soil (NH4^+-N),[2],176.8 ± 1.2c
same,contents of urea nitrogen in soil (Urea-N),[2],3.7 ± 1.2cd
same,contents of ammonia nitrogen in soil (NH4^+-N),[3],197.7 ± 7.3ab
same,contents of urea nitrogen in soil (Urea-N),[3],3.4 ± 0.5 days
same,contents of ammonia nitrogen in soil (NH4^+-N),[4],187 ± 8.5 mg/kg
same,contents of urea nitrogen in soil (Urea-N),[4],3.3 ± 0.2c
same,contents of ammonia nitrogen in soil (NH4^+-N),[5],221.7 ± 2.4ab
same,contents of urea nitrogen in soil (Urea-N),[5],2.9 ± 0.5bc
same,contents of ammonia nitrogen in soil (NH4^+-N),[6],150.8 ± 2.8b
same,contents of urea nitrogen in soil (Urea-N),[6],15.2 ± 0.1c
same,contents of ammonia nitrogen in soil (NH4^+-N),[7],173.7 ± 1.9c
same,contents of urea nitrogen in soil (Urea-N),[7],9.1 ± 0.51b
same,contents of ammonia nitrogen in soil (NH4^+-N),"1,9-decanediol 200 mg/kg in soil + urea, 3 d of culture",195 ± 9b
same,contents of ammonia nitrogen in soil (NH4^+-N),[8],213.9 ± 3.3ab
same,contents of urea nitrogen in soil (Urea-N),[8],2.8 ± 0.5c
same,contents of ammonia nitrogen in soil (NH4^+-N),[9],221.4 ± 4.4ab
same,contents of urea nitrogen in soil (Urea-N),[9],4.2 ± 1.4ab
same,contents of ammonia nitrogen in soil (NH4^+-N),[10],51 ± 1.1c
same,contents of urea nitrogen in soil (Urea-N),[10],115.6 ± 13b
same,contents of ammonia nitrogen in soil (NH4^+-N),[11],160 ± 6.2 mg/kg
same,contents of urea nitrogen in soil (Urea-N),[11],11.7 ± 0.4b
same,contents of ammonia nitrogen in soil (NH4^+-N),[12],180.8 ± 6.3c
same,contents of urea nitrogen in soil (Urea-N),[12],10.5 ± 0.7b
same,contents of ammonia nitrogen in soil (NH4^+-N),[13],207.3 ± 2.1b
same,contents of urea nitrogen in soil (Urea-N),[13],6.1 ± 0.6a
same,contents of ammonia nitrogen in soil (NH4^+-N),[14],217.3 ± 3.3b
same,contents of urea nitrogen in soil (Urea-N),[14],3.4 ± 0.7bc
same,contents of ammonia nitrogen in soil (NH4^+-N),[15],46.3 ± 2.1c
same,contents of urea nitrogen in soil (Urea-N),[15],139 ± 7.2a
same,contents of ammonia nitrogen in soil (NH4^+-N),[16],92.9 ± 0.4e
same,contents of urea nitrogen in soil (Urea-N),[16],73.4 ± 3.8a
same,contents of ammonia nitrogen in soil (NH4^+-N),[17],152 ± 1.4 mg/kg
same,contents of urea nitrogen in soil (Urea-N),[17],14.8 ± 1.7a
same,contents of ammonia nitrogen in soil (NH4^+-N),[18],196.7 ± 2c
same,contents of urea nitrogen in soil (Urea-N),[18],5 ± 0.5b
same,contents of ammonia nitrogen in soil (NH4^+-N),[19],203.2 ± 7c
same,contents of urea nitrogen in soil (Urea-N),[19],5.4 ± 0.5a
same,inhibition of urea hydrolysis during the culture period,addition of 500 mg/kg,can significantly inhibit the urea hydrolysis
same,inhibition of urea hydrolysis during the culture period,addition of 1000 mg/kg,can significantly inhibit the urea hydrolysis
same,effect on retarding the hydrolysis efficiency of urea,,can retard the hydrolysis efficiency of urea
same,efficiencies of retarding urea hydrolysis from large to small,"ranking of treatments (1,9-D 100-1000 mg/kg, DCD 20 mg/kg soil)","1, 9-D-1000>1, 9-D-500>1, 9-D-200>1, 9-D-100>DCD"
"N#CN=C(N)N [DCD, dicyandiamide, reference compound]",contents of ammonia nitrogen in soil (NH4^+-N),[20],176.9 ± 5.5a
same,contents of urea nitrogen in soil (Urea-N),[20],4.5 ± 0.4c
same,contents of ammonia nitrogen in soil (NH4^+-N),[21],183.6 ± 4b
same,contents of urea nitrogen in soil (Urea-N),[21],1.6 ± 0.3 days
same,contents of ammonia nitrogen in soil (NH4^+-N),[22],203.1 ± 1.6ab
same,contents of urea nitrogen in soil (Urea-N),[22],1.4 ± 0.2e
same,contents of ammonia nitrogen in soil (NH4^+-N),[23],208.4 ± 1.6b
same,contents of urea nitrogen in soil (Urea-N),[23],1.2 ± 0.1 days
same,contents of ammonia nitrogen in soil (NH4^+-N),[24],217.9 ± 4.3b
same,contents of urea nitrogen in soil (Urea-N),[24],2.9 ± 0.4bc
same,effect on retarding the hydrolysis efficiency of urea,,no effect
